# Patent US20230345940A1, “INSECTICIDE” (Western Sydney University, priority 2020, published 2023)
# Values joined by “and” are separate entries in the source; they are usually repeats but may differ in a detail not shown here. Equal entries are not always repeated. Where two headings read alike, the source gives them in different places.
# Experiments:
# Assay type in all cases: in vivo
# [1] = system: neonate Helicoverpa armigera; assay: Potter spray tower bioassay on leaf discs, Helicoverpa neonates; settings: 1.0% w/v; for mortality at 1 % strength: Helicoverpa armigera, foliar
# Text: Helicoverpa armigera (Hubner) (Lepidoptera: Noctuidae), commonly known as the cotton bollworm or as heliothis, is a widespread species, with an extensive host range (see, e.g., https://www.cabi.org/isc/datasheet/26757). It typically feeds selectively on high protein plant parts, such as flowers, buds and fruits. Helicoverpa armigera was obtained as fresh eggs from AgBiTech Pty. Ltd, Glenvale QLD, Australia, or CSIRO Agriculture and Food, Cotton Research Institute, Myall Vale NSW, Australia.
# Eggs (50-75) were transferred with a fine camel hair brush onto 90 mm Whatman No. 1 filter paper partially moistened with distilled water and thin slices from the artificial medium supplied by AgBiTech were placed on the filter paper as a source of food for the hatching caterpillars. The eggs were left to hatch under laboratory conditions of 25±3° C. and 65±10% RH. Hatching occurred within 24 h and bioassays were carried out on neonate larvae with an average weight of […].
# For Helicoverpa, neonate larvae 4-12 h after hatching were transferred individually to a cotton plant leaf disc (35 mm diameter) mounted with its lower side uppermost on 1% agar in an Easy Grip Tissue Culture Dish dimensions 35×10 mm (Corning Incorporated, Corning NY, USA). […] Thus, each replicate comprised 4 neonates.
# Following spraying, the small dishes were covered with a perforated plastic sheet and then placed in plastic insect cages previously described for aphid bioassays. The number of dishes sprayed per sample was 4-10. Dishes were retained under laboratory conditions (24±2° C., 50±15% RH) for post-treatment observations. Mortality counts were conducted at 24 and 48 HAT. Absence of the caterpillar movement when prodded with a fine brush was taken as the criterion of death.
# (§1) For each batch of investigations, control treatments were conducted, with methodology identical to other treatments. The control treatment solutions comprised 3 mL aliquots of 200 ppm Triton X-100 in distilled water and acetone or hexane at the same concentration as the test solutions. Investigations were discarded if control mortality exceeded 15%. Treatment mortality was calculated and is presented as corrected mortality, to account for any control mortality (Abbott WS., A method of computing the effectiveness of an insecticide. Journal of Economic Entomology, 18, 265-267, 1925).
# [2] = system: two-spotted spider mite (TSM), Tetranychus urticae Koch; assay: Potter spray tower bioassay on leaf discs, two-spotted spider mite; settings: 1.0% w/v; for mortality at 1 % strength: Tetranychus urticae, foliar
# Text: Tetranychus urticae Koch, (Acari: Tetranychidae), commonly known as two-spotted spider mite is a cosmopolitan, phytophagous species, and an important agricultural pest in many temperate and sub-tropical countries. It is highly polyphagous, and feeds primarily on plant foliage. Tetranychus urticae Koch UWS 1 (organophosphate-susceptible) strain, originally obtained from Dr Grant Herron, NSW
# Department of Primary Industries, Menangle NSW, Australia, but had been maintained at WSU Hawkesbury campus for approximately 18 years. They were reared on potted French beans, Phaseolus vulgaris var Redland Pioneer (in a constant temperature room maintained at 25±2° C., 65±5% RH and 14 h D: L photoperiod. The culture was reared on potted dwarf French bean (Phaseolus vulgaris L. var. Redland Pioneer) plants grown in a composted pinebark-based potting medium in a large (7.0 m (1)×6.0 m (w)×4.0 m (h)), pesticide-free, constant temperature room (28-30° C., 50% RH, 18:6, D:L). Only young gravid female two-spotted mites were selected for bioassay.
# For the two-spotted spider mite, screening of each sample was conducted on 20-40 adult female mites, which were evenly distributed on 1-3 French bean leaf discs (25 mm diam.) contained in 90 mm diameter Petri dishes. The leaf discs were placed with their underside uppermost on moist absorbent cotton wool. Water was added to the dishes daily to prevent desiccation of the leaf discs and preventing the mites from escaping the leaf disc.
# A 3.0 mL aliquot was applied to each Petri dish with a Potter precision spray tower as described by Herron et al., Potter spray tower bioassay of selected citrus pests to petroleum spray oil, Journal of the Australian Entomological Society 34, 253-263, 1995.
# The average weight of the solution sprayed on each dish was calculated to be 5.385 mg/cm^2 or 0.05385 mg/cm^2 active ingredient (a.i.). Dishes were retained under laboratory conditions (24±2° C., 50±15% RH) for post-treatment observations. Mortality was recorded 24 h and 48 h after treatment (HAT). Death was recognised by the absence of movement when the test organisms were mechanically stimulated by prodding with a brush.
# as §1
# [3] = system: cotton aphid, Aphis gossypii; assay: Potter spray tower bioassay on leaf discs, cotton aphid; settings: 1.0% w/v
# Method: Aphis gossypii (susceptible strain) (Hemiptera: Aphididae), was established as a culture from material supplied by Dr Grant Herron, NSW Department of Primary Industries, Menangle NSW, Australia. Aphids were reared on potted Gossypium hirsutum L. (Malvaceae) grown from non-insecticide-treated conventional cotton seed, supplied by Dr Robert Mensah, NSW Department of Primary Industries, Narrabri NSW, Australia. The culture was maintained in a temperature-controlled greenhouse chamber set at 27±3° C. and 55±10% RH (relative humidity) and natural light. Only young adult females were selected for bioassay.
# For the cotton aphid, parthenogenetic adult female aphids were collected from the cultures on cotton plants. Fifteen adults were transferred using a fine camel hair brush onto the lower side of a respective leaf disc 50 mm diameter mounted on 1.0% w/v agar in a plastic insect cage measuring 50 mm diameter×15 mm height plastic insect breeding 50 mm diameter×15 height (SPL Life Sciences, Korea).
# Aliquots (3 mL) of the 1% w/v extracts were applied with a Potter Spray Tower for each treatment, as described above, and the spray was allowed to partially dry before the cage was covered with its lid and the sides of the cage sealed with Parafilm M®.
# Dishes were retained under laboratory conditions (24±2° C., 50±15% RH) for post-treatment observations. […]
# [4] = system: Aphis gossypii adults and nymphs; assay: Field trial on cotton crop; settings: extract at 1.0%, clothianidin at 125 mL/ha
# Method: A trial was conducted on an irrigated commercial Bollgard II cotton crops (Sicot 74 variety) at the Australian Cotton Research Institute (ACM) in Narrabri NSW, Australia. The cotton crop used for the study comprised mature plants close to cut-out and were contaminated with Aphis gossypii from infested leaves collected from a nearby commercial cotton field at Yarral, Narrabri NSW, Australia.
# […] Each replicated plot measured 2 m (2 rows) wide and 1 m long with 2 m (rows) buffer between replicated plots. Three plants in each treatment replicate with terminals infested with aphids were randomly selected and terminals tagged for pre- and post-treatment assessments.
# The control was sprayed with 100 ppm Triton-X 100 in water only.
# Foliar application of each treatment was performed, applying the control first, then the plant extract, and finally the industry standard. Each treatment was applied to run-off using a small hand-held pressure sprayer fitted with flat fan nozzles delivering a droplet size of 200 μm (equivalent to field application of 100 L/ha). The decision to apply the treatment was made based on the IPM Guidelines and CottonLogic recommended economic threshold of 50% of plant terminals infested.
# The number of A. gossypii and beneficial species (mainly predatory insects) were assessed by visually counting A. gossypii adults and nymphs and beneficials on the upper and undersides of leaves from the 3-4 nodes below the tagged plant terminals. Pre-treatment counts were made 24 h before treatment and post treatment counts on 1, 2, 5, 6, 7, 8, 9, 12 and 14 days after treatment (DAT).
# The data for both A. gossypii adults and nymphs as well as predatory insects were each initially expressed as numbers per terminal. Data were calculated as percentage reduction of population compared to the pre-treatment count.
# Means of data on population reduction were compared using one-way ANOVA, after confirming normality, using SPSS v21. Significance was normally set at 5% (α=0.05), and when there was significance, means were separated using Duncan's Multiple range test.
compound,measurement,setting,value
10′-oxo-8-methyl podopyrone [Fraction 44],Corrected percentage mortality Helicoverpa 24 HAT,[1],100.0%
same,Corrected percentage mortality Helicoverpa 48 HAT,[1],100.0%
same,Corrected percentage mortality TSM 24 HAT,[2],100.0%
same,Corrected percentage mortality TSM 48 HAT,[2],100.0%
same,Corrected percentage mortality Cotton aphid 24 HAT,[3],100.0%
CN/C(=N\[N+](=O)[O-])NCc1cnc(Cl)s1 [Clothianidin],"% Reduction from pre-treatment count, Mean of plots, 1 DAT",[4]; mean of plots 1-4,54.65%
same,"% Reduction from pre-treatment count, Mean of plots, 2 DAT",[4]; mean of plots 1-4,77.18%
same,"% Reduction from pre-treatment count, Mean of plots, 5 DAT",[4]; mean of plots 1-4,"85.08a, b %"
same,"% Reduction from pre-treatment count, Mean of plots, 6 DAT",[4]; mean of plots 1-4,84.83%
same,"% Reduction from pre-treatment count, Mean of plots, 7 DAT",[4]; mean of plots 1-4,77.88%
same,"% Reduction from pre-treatment count, Mean of plots, 14 DAT",[4]; mean of plots 1-4,82.08%
same,"% Reduction from pre-treatment count (mean of 3 plants), 2 DAT","[4]; per plot, single spray",55.1% and 92.9% and 64.4% and 96.3%
same,"% Reduction from pre-treatment count (mean of 3 plants), 5 DAT","[4]; per plot, single spray",75.0% and 78.6% and 97.8% and 88.9%
same,"% Reduction from pre-treatment count (mean of 3 plants), 6 DAT","[4]; per plot, single spray",84.6% and 64.3% and 97.8% and 92.6%
same,"% Reduction from pre-treatment count (mean of 3 plants), 14 DAT","[4]; per plot, single spray",97.8% and 78.6% and 77.8% and 74.1%
"CCc1c(OC)oc(CCCCCCCCCC(C)=O)c(C)c1=O [Fraction 42, 10′-oxopodopyrone]",mortality at 1 % strength,[1]; read-out: Corrected percentage mortality Helicoverpa 24 HAT,0%
same,mortality at 1 % strength,[1]; read-out: Corrected percentage mortality Helicoverpa 48 HAT,0%
same,mortality at 1 % strength,[2]; read-out: Corrected percentage mortality TSM 24 HAT,100%
same,mortality at 1 % strength,[2]; read-out: Corrected percentage mortality TSM 48 HAT,100%
